These results are taken from the supplement of paper PMC10307832.

Holding throughout (assay): relative viability (nuclei count vs DMSO), 5 days (fraction); higher = more cells survive
Compound in experiment [1]: C=CC(=O)N1CCC[C@@H](n2nc(-c3ccc(Oc4ccccc4)cc3)c3c(N)ncnc32)C1 [Ibrutinib] + CC1(C)CCC(c2ccc(Cl)cc2)=C(CN2CCN(c3ccc(C(=O)NS(=O)(=O)c4ccc(N[C@H](CCN5CCOCC5)CSc5ccccc5)c(S(=O)(=O)C(F)(F)F)c4)cc3)CC2)C1 [Navitoclax] (partner 0.5 µM)
The procedure, abridged:
(§1)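 Medians of duplicate plates are given as relative viability. That measure is the nuclei count in treated wells divided by the count in vehicle wells. Counts were taken on 4× images of lung cancer cell lines in 1536-well plates, 5 days after pin-tool dosing the day after seeding with one drug alone or a fixed anchor-drug dose plus five library-drug doses (not always all listed) in √10 steps.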

Compound in experiment [2]: C=CC(=O)N1CCC[C@@H](n2nc(-c3ccc(Oc4ccccc4)cc3)c3c(N)ncnc32)C1 [Ibrutinib] + COc1cc2c(Oc3ccc(NC(=O)C4(C(=O)Nc5ccc(F)cc5)CC4)cc3F)ccnc2cc1OCCCN1CCOCC1 [Foretinib] (partner 0.25 µM)
The procedure, abridged: as §1

Compound in experiment [3]: C=CCc1cccc(/C=N/NC(=O)CN2CCN(Cc3ccccc3)CC2)c1O [PAC-1] + Cc1nc(Nc2ncc(C(=O)Nc3c(C)cccc3Cl)s2)cc(N2CCN(CCO)CC2)n1 [Dasatinib] (partner 0.075 µM)
The procedure, abridged: as §1

Compound in experiment [4]: C=CCc1cccc(/C=N/NC(=O)CN2CCN(Cc3ccccc3)CC2)c1O [PAC-1] + Nc1ncn([C@H]2C[C@H](O)[C@@H](CO)O2)c(=O)n1 [Decitabine] (partner 2 µM)
The procedure, abridged:
as §1

On to SK-MES-1, for which the relative viability in experiment [1] (first compound 0.005 µM) is 1.19; in experiment [1] (first compound 0.01581 µM), 1.2; in experiment [1] (first compound 0.05 µM), 1.34; in experiment [1] (first compound 0.1581 µM), 1.32; in experiment [1] (first compound 0.5 µM), 0.723; in experiment [2] (first compound 0.005 µM) it was 1.03. Besides, the relative viability stood at 0.884 in experiment [2] (first compound 0.01581 µM); 0.841 in experiment [2] (first compound 0.05 µM); 0.989 in experiment [2] (first compound 0.1581 µM); 0.582 in experiment [2] (first compound 0.5 µM); 0.359 in experiment [3] (first compound 0.02 µM); 0.516 in experiment [3] (first compound 0.06325 µM). Besides, the relative viability stood at 0.371 in experiment [3] (first compound 0.2 µM); 0.401 in experiment [3] (first compound 2 µM); 0.432 in experiment [4] (first compound 0.02 µM); 0.389 in experiment [4] (first compound 0.06325 µM); 0.325 in experiment [4] (first compound 0.2 µM); 0.322 in experiment [4] (first compound 2 µM).
